In test [1] the target is T1, S1P receptor 1 (S1PR1) (Homo sapiens, UniProt P21453). Nature of the test: S1PR1 protein expression in HPAEC by Western blot. In kind it is cell-based. The note with it: for S1PR1 expression level compared to control: 1 μM (SEW2871 10 μM), 4 h. More on the design: Cells were collected and S1PR1 expression level was detected by Western blot; endogenous in cells; host or cells: HPAEC (human pulmonary artery endothelial cells). From the text:
Cells were collected and S1PR1 expression level was detected by Western blot.
On the technique in general: Immunoblotting shows a protein as a band on a membrane.

A further test has as its system ERK. Nature of the test: Western blotting of HPAEC lysates for phospho-ERK. As to conditions: 5 min. In kind it is cell-based, human. The procedure:
(§1) After treatment as outlined for individual experiments, confluent HPAEC were lysed for Western blotting with phospho-MLC, pan-MLC, phospho-ERK, or pan-ERK antibodies. […] Membranes were then immunoblotted with primary antibodies (1:500-1000, 4° C., overnight) followed by secondary antibodies conjugated to horseradish peroxidase (1:5000, room temperature, 30 min) and detected with enhanced chemiluminescence (Pierce ECL or SuperSignal West Dura; Pierce Biotechnology, Rockford, Ill.) on Biomax MR film (Carestream Health, Rochester, N.Y.).

Test [2] has as its system HPAEC. Nature of the test: Pharmacologic inhibitor effects on barrier enhancement (TER). The note with it: 1 μM agonist, 60 min; for % Inhibition of Maximal TER Response (of Agonist-Only Control), PTX: 2-h preincubation 100 ng/ml PTX; for % Inhibition of Maximal TER Response (of Agonist-Only Control), MβCD: 2-h preincubation 2 mM MβCD; for % Inhibition of Maximal TER Response (of Agonist-Only Control), Gen: 30-min preincubation 200 μM genistein.
Experimental: Endothelial cells were grown to confluence in polycarbonate wells containing evaporated gold microelectrodes (surface area, 10^−3 cm^2) in series with a large gold counter electrode (1 cm^2) connected to a phase-sensitive lock-in amplifier. Current was applied across the electrodes by a 4,000-Hz AC voltage source with amplitude of 1 V in series with a 1 MΩ resistance to approximate a constant current source (˜1 μA). The in-phase and out-of-phase voltages between the electrodes were monitored in real time with the lock-in amplifier and subsequently converted to scalar measurements of transendothelial impedance, of which resistance was the primary focus. TER was monitored for 30 minutes to establish a baseline resistance (R0) which, for bovine pulmonary endothelium, was typically between 8 to 12×10^3Ω (wells with R0<7×10^3Ω were rejected). As cells adhere and spread out on the microelectrode, TER increases (maximal at confluence), whereas cell retraction, rounding, or loss of adhesion is reflected by a decrease in TER. These measurements provide a highly sensitive biophysical assay that indicates the state of cell shape and focal adhesion. Values from each microelectrode were pooled at discrete time points and plotted versus time as the mean±SE of the mean. TER values from each microelectrode were pooled as discrete time points and plotted versus time as the mean±S.E.M.
In this experiment, confluent HPAEC were plated on gold microelectrodes and then stimulated with 1 μM S1P, FTY720, 1R, 1S, 2R, or 2S after either a 2-h preincubation with 100 ng/ml PTX, 30-min preincubation with 200 μM genistein (Gen), or 2-h preincubation with 2 mM MβCD or their respective vehicle controls. Data were pooled from multiple TER experiments (4-10 independent experiments per condition) and expressed as percentage inhibition of maximal barrier enhancement at 60 min relative to agonist-only control.

The next test concerns β-arrestin. The note with it: 1 μM (SEW2871 10 μM; (S)-FTY720-phosphonate 1, 10, 50 μM), 5 h.
The subject of test [3] is HPAEC. Nature of the test: Transendothelial electrical resistance (TER) of HPAEC. The format is cell-based, human. As to conditions: for maximal percentage TER change compared with S1P and FTY720 / maximal TER change: within 60 min; for maximal TER change: 10 μM. Here is the method:
Cells were grown at 37° C. in a 5% CO2 incubator, and passages 6 to 9 were used for experiments. Media were changed 1 day before experimentation.

For test [4], the target named is T1, S1P receptor 1 (S1PR1). The test is described as follows: Ubiquitination of S1PR1 in HPAEC (immunoprecipitation, ubiquitin Ab). As to conditions: for ubiquitination of S1PR1 at 2 h: 1 μM (SEW2871 10 μM).
Text: S1PR1 was immunoprecipitated by S1PR1Ab, and ubiquitination of S1PR1 was detected by ubiquitin Ab.
Test [5] concerns HPAEC. The test is described as follows: Transwell transendothelial permeability assay (FITC-dextran). The note with it: 1 μM (3R, 3S 25 μM), 1 h before FITC-dextran, 2-h incubation. In kind it is cell-based, human.
Experimental: As a complementary approach to further characterize the barrier-protective effects of these FTY720 analogs in vitro, the permeability of FITC-labeled dextran across the pulmonary EC monolayer was assayed in response to treatment by the FTY720 analogs. […] Data were normalized to unstimulated control. n=3 independent experiments per condition; *, p<0.01 versus unstimulated condition (see FIG. 26).
In a further test the test system is MLC. The test is described as follows: Western blotting of HPAEC lysates for phospho-MLC. In kind it is cell-based, human. As to conditions: 5 min. The procedure: as §1
Test [6] relates to radiation-induced lung injury (RILI) in C57BL/6 mice. Nature of the test: Murine model of RILI: BAL protein, BAL cell counts, BAL cytokines, EBD extravasation, body weight, lung histology. As to conditions: 6 weeks. In kind it is in vivo, mouse. The procedure:
Eight to 10-week-old C57BL/6J mice (Jackson Labs, Bar Harbor, Me.) were used for all studies in accordance with the University of Chicago Institutional Animal Care & Use Committee guidelines.
At the termination of each experiment, animals were euthanized by exsanguination under anesthesia in accordance with institutional guidelines. Both lungs were lavaged with 1.0 mL of Hank's buffered saline solution with the fluid allowed to equilibrate for 10 s before withdrawing. The pulmonary vasculature was perfused clear via the pulmonary artery with sterile phosphate-buffered saline (PBS). Both lungs were excised, weighed, and snap-frozen in liquid nitrogen for subsequent analysis. The BAL fluid collected was centrifuged at 500×g for 20 min at 4° C., and the supernatant was removed and recentrifuged at 12,000×g before snap-freezing. Cell pellets were resuspended in 0.5 mL of red blood cell lysis buffer (ACK Lysing Buffer; BioSource International, Camarillo, Calif.) for 20 min and then repelleted by centrifugation at 2500 rpm for 20 min at 4° C. The supernatant was decanted, and the cell pellet was resuspended in 0.2 mL of PBS for cellular analysis using a standard hemacytometer technique. A total of 300 BAL cells per slide were counted for cell differentials using a Diff-Quick-stained kit (Baxter Diagnostics, McGaw Park, Ill.). BAL protein concentrations were determined by a colorimetric BCA assay. Albumin concentrations in the BAL at 1:1000 and 1:100 dilutions, respectively, were quantitated by ELISA (Bethyl Labs, Montgomery, Tex.). To measure cytokines and chemokines, the BAL fluid was assayed with a Bioplex mouse cytokine kit (Bio-Rad, Hercules, Calif.) in accordance with the manufacturer's instructions.
All other chemicals were analytical or cell-culture grade and were obtained from various commercial sources. Evans Blue dye conjugated to albumin (EBA) was prepared by dissolving EBD to a concentration of 0.5% (5 mg/mL or 5.2 mM) in phosphate-buffered saline (PBS) (Ca^2+-Mg^2+ free; Invitrogen Corporation, Carlsbad, Calif.). To this solution, BSA was added to a final concentration of 4% (40 mg/mL or 0.6 mM), mixed well by stirring with a magnetic bar, allowed to stand for 30 min, and then sterile-filtered through a 0.22-μm syringe filter. The conjugate was stored in small aliquots at −80° C. To prevent cross-contamination, each aliquot was used only once in one animal and then discarded. 4, 6, 8, or 12 weeks after irradiation, the animals were injected with EBA via the jugular vein. At the end of exposure, the pulmonary circulation was flushed and lungs were harvested. Formamide extracts of lungs were prepared, with the initial modification that the homogenates were centrifuged at 12,000×g. Centrifugation at this relative centrifugal force (RCF) produced a compact pellet that allowed accurate measurement of the recovered volumes. Accurate estimation of such volumes is critical for calculating the final tissue dilution factor. Lungs, kidneys, and hearts from mice that were not injected with EBA were similarly extracted, to calculate the tissue-specific correction factors. […] Linear regression equations between absorbance at 740 nm (X) and 620 nm (Y) in tissue extracts of animals untreated with EBA were considered to be the tissue-specific correction factors. […] The EB concentration read in mg/mL was converted to μg/g wet weight of lungs using the dilution factor of the original homogenate as described above.
Eight to 10-week-old C57BL/6J mice (Jackson Labs, Bar Harbor, Me.) were used for all studies in accordance with the University of Chicago Institutional Animal Care & Use Committee guidelines. […] (FIG. 4A). Bronchoalveolar lavage (BAL) was performed as described above. BAL protein concentrations were determined by a colorimetric BCA assay. Albumin concentrations in the BAL at 1:1000 and 1:100 dilutions, respectively, were quantitated by ELISA (Bethyl Labs, Montgomery, Tex.).

Test [7] deals with lung vascular leakage in RILI mice. Nature of the test: ViSen FMT lung imaging of intravascular probe extravasation in RILI mice. The format is in vivo, mouse. As to conditions: 0.1 mg/kg, 25 Gy, 6 weeks. Here is the method: Lung imaging studies were also performed with assessment of RILI-induced extravasation of an intravascular probe.
To assess microvascular changes associated with RILI in real-time, mice were imaged with ViSen FMT 1500 Quantitative Tomography In Vivo Imaging System. Intergisens^750 NIR (ViSen Medicals, Bedford, Mass.) was used as a probe, which targets the vasculature as a selective non-peptide small molecule integrin αvβ3 antagonist and a near-infrared fluorochrome. Mice were injected with probe ([…], IV) at 6 weeks post radiation and imaged 24 hrs later. Probe intensity was quantified using TrueQuant 3D software (VisSen Medicals).

The mark [8] stands for this setting: 0.01 or 0.1 mg/kg i.p. 2×/wk from 1 wk before irradiation (20 Gy).

Residues, ends and D or L forms follow the SMILES beside them. *: point of attachment. Cbz = O=C(OCc1ccccc1)*

T1 sequence (P21453 whole entry): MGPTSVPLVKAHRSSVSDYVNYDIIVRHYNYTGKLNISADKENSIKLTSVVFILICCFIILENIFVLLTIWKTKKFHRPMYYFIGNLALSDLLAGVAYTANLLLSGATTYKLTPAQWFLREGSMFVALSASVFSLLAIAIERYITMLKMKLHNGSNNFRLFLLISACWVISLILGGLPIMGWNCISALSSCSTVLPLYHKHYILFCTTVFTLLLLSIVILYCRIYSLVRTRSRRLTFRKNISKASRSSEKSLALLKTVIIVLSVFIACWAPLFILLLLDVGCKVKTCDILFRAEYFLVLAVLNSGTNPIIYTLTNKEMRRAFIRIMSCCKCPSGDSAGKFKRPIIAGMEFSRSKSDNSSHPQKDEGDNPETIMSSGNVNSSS
Experimental for β-arrestin: After another 2 h-incubation with fluorescence substrate, the fluorescence intensity (blue and green channels) were detected and the blue/green emission ratio was used as the activation indicator.

For the compound `CCCCCCCCc1ccc(CC[C@](N)(CO)CCP(=O)(O)O)cc1` [1R, (R)-3-amino-3-(hydroxymethyl)-5-(4-octylphenyl)pentylphosphonic acid], the “S1PR1 expression level compared to control” value on S1P receptor 1 (S1PR1) [1] came to 47.2%. The “S1PR1 expression, agonist without MG132” value on S1P receptor 1 (S1PR1) [1] (1 μM, 4 h (FIG. 18)) was 66.3%. The “S1PR1 expression, agonist after MG132 pretreatment” value on S1P receptor 1 (S1PR1) [1] (MG132 10 μM 2 h, then 1 μM agonist 4 h) is given as 94.2%. The ERK phosphorylation result in the test with ERK is given as “increased phosphorylation of ERK”. Further, in the test on HPAEC [2], the “% Inhibition of Maximal TER Response (of Agonist-Only Control), PTX” value (from here on “% Inhibition of Maximal TER Response … PTX”) was 79.2 (±5.9) %; the “% Inhibition of Maximal TER Response (of Agonist-Only Control), MβCD” value (“% Inhibition of Maximal TER Response … MβCD” for short) is 67.0 (±19.7) %; the “% Inhibition of Maximal TER Response (of Agonist-Only Control), Gen” value (from here on “% Inhibition of Maximal TER Response … Gen”) is 54.3 (±14.7) %. Also, in the test with β-arrestin, the “activation of β-arrestin (blue/green emission ratio)” value was “strongly activated”. In addition, in the test with HPAEC [3] (1 μM), the “maximal percentage TER change compared with S1P and FTY720” value is “greater maximal percentage TER change”. The “maximal TER change” value in the test with HPAEC [3] is given as “even greater maximal TER elevation”. In addition, the “ubiquitination of S1PR1 at 2 h” value on S1P receptor 1 (S1PR1) [4] is “significant ubiquitination”. Further, the “ubiquitination of S1PR1 at 1 h” value on S1P receptor 1 (S1PR1) [4] (1 μM, 1 h) is on record as “only slight ubiquitination”.

Turning to `CCCCCCCCc1ccc(CC[C@@](N)(C=CP(=O)(O)O)CO)cc1` [2R, (R)-3-amino-3-(hydroxymethyl)-5-(4-octylphenyl)pent-1-enylphosphonic acid], the ERK phosphorylation entry in the test with ERK was “increased phosphorylation of ERK”. In the test on HPAEC [2], the “% Inhibition of Maximal TER Response … PTX” value is recorded as 88.1 (±7.8) %; the “% Inhibition of Maximal TER Response … MβCD” value is 87.4 (±5.4) %; the “% Inhibition of Maximal TER Response … Gen” value is on record as 41.1 (±12.2) %. For the same compound, the “maximal percentage TER change compared with S1P and FTY720” value in the test with HPAEC [3] (1 μM) is reported as “greater maximal percentage TER change”. Besides, the “maximal TER change” value with HPAEC [3] is reported as “even greater maximal TER elevation”.

Turning to `CCCCCCCCc1ccc(CC[C@](N)(C=CP(=O)(O)O)CO)cc1` [2S, (S)-3-amino-3-(hydroxymethyl)-5-(4-octylphenyl)pent-1-enylphosphonic acid], in the test with ERK, the ERK phosphorylation entry was “failed to induce phosphorylation”. Moreover, in the test with HPAEC [2], the “% Inhibition of Maximal TER Response … PTX” value is recorded as 76.3 (±12.0) %; the “% Inhibition of Maximal TER Response … MβCD” value is on record as 95.2 (±1.0) %; the “% Inhibition of Maximal TER Response … Gen” value is reported as 91.6 (±2.4) %. In the test on HPAEC [3], the “maximal TER change” value is “somewhat barrier-disruptive”.

For the compound `CCCCCCCCc1ccc(CCC(O)(CN)CCO)cc1` (centres unmarked) [3R, 3-(aminomethyl)-5-(4-octylphenyl)pentane-1,3-diol], in the test on ERK, the ERK phosphorylation entry was “did not increase ERK or MLC phosphorylation”. Also, in the test with HPAEC [5], the “EC permeability to FITC-dextran vs control EC” value is recorded as “increase EC permeability”. Besides, the “TER response (tracing)” value in the test on HPAEC [3] (1 μM) is on record as “barrier-disruptive”. Besides, the MLC phosphorylation entry in the test on MLC was “did not increase ERK or MLC phosphorylation”.

On to `CC(C)C[C@@H](C=O)NC(=O)[C@H](CC(C)C)NC(=O)[C@H](CC(C)C)NC(=O)OCc1ccccc1` [MG132, reference compound] (Cbz-Leu-Leu-Leu-aldehyde), for which the “S1PR1 expression, MG132 alone” value on S1P receptor 1 (S1PR1) [1] (10 μM) is reported as “did not affect the expression of S1PR1”.

Regarding `FC(F)(F)c1cccc(-c2noc(-c3cc(-c4ccccc4)c(C(F)(F)F)s3)n2)c1` [SEW2871, 5-[4-phenyl-5-(trifluoromethyl)-2-thienyl]-3-[3-(trifluoromethyl)phenyl]-1,2,4-oxadiazole], the “S1PR1 expression level compared to control” value on S1P receptor 1 (S1PR1) [1] came out at 30.3%. Further, in test [6] (0.1 mg/kg i.p. 2×/wk, 25 Gy), the “lung histology: inflammatory cell infiltration and interstitial edema induced by radiation” value was “to a lesser extent”. Besides, in test [6] (setting [8]), the “BAL cell counts vs RILI-challenged controls” value was “dose-dependent protective effect” and the “BAL protein vs RILI-challenged controls” value is “dose-dependent protective effect”. Also, the “activation of β-arrestin (blue/green emission ratio)” value with β-arrestin is “strongly activated”. In addition, the “radiation-induced probe extravasation (probe intensity), FMT imaging” value in [7] is recorded as “significant decreases”. In addition, the “ubiquitination of S1PR1 at 2 h” value on S1P receptor 1 (S1PR1) [4] is given as “significant ubiquitination”.
